This passage reports mass density and refractive index results from the NIST ThermoML archive (doi:10.1021/acs.jced.9b00218).

A short description of series [1]: wn = mass fraction of the nth substance listed. As to conditions: 298.15 K, 100 kPa, Liquid, Vibrating tube method.
Series [2] is described as follows: refractive index (Na D-line) (dimensionless); wn = mass fraction of the nth substance listed. To be noted: 298.15 K, 100 kPa, Liquid, Standard Abbe refractometry.

The structures appear in SMILES notation. ± gives the expanded uncertainty stated by the source.

As to `O=B[O-].[Na+]` [sodium metaborate] + O, the mass density (usually the mass of a sample divided by its volume) in series [1] (w1 = 0.2259) was 1280.56 ± 12 kg/m3. The refractive index (usually the speed of light in vacuum divided by its phase velocity in the sample) in series [2] (w1 = 0.2259) is 1.38898 ± 0.002.
`O=B[O-].[K+]` [potassium metaborate] + O: the mass density in series [1] (w1 = 0.4388) is reported as 1539.08 ± 12 kg/m3. Further, the refractive index in series [2] (w1 = 0.4388) is 1.42543 ± 0.002.
As to `O=B[O-].[Li+]` [lithium metaborate] + O, in series [1] (w1 = 0.0336), the mass density is reported as 1035.63 ± 12 kg/m3. For the same compound, the refractive index in series [2] (w1 = 0.0336) is 1.3448 ± 0.002.
